{"source": "patent KR20230116309A", "about": "(priority 2022, dated 2023)", "key": {"[1]": {"tested_on": "proteins involved in foot-and-mouth disease virus replication [구제역바이러스의 증식에 관여하는 단백질]", "settings": "cited from earlier work"}, "[2]": {"tested_on": "IP-10 [IP-10(CXCL10)]", "set-up": "species or system Balb/C mouse", "settings": "mouse, in vivo"}, "[3]": {"tested_on": "porcine interferon alpha protein [돼지 인터페론 알파 단백질]", "format": "cell-based"}, "[4]": {"tested_on": "enterovirus 71 [엔테로바이러스 71(EV71)]", "settings": "cited from earlier work"}, "[5]": {"target": "T1, TLR7 (toll-like receptor 7) (Homo sapiens, UniProt Q9NYK1)", "T1 sequence (Q9NYK1 27-1049)": "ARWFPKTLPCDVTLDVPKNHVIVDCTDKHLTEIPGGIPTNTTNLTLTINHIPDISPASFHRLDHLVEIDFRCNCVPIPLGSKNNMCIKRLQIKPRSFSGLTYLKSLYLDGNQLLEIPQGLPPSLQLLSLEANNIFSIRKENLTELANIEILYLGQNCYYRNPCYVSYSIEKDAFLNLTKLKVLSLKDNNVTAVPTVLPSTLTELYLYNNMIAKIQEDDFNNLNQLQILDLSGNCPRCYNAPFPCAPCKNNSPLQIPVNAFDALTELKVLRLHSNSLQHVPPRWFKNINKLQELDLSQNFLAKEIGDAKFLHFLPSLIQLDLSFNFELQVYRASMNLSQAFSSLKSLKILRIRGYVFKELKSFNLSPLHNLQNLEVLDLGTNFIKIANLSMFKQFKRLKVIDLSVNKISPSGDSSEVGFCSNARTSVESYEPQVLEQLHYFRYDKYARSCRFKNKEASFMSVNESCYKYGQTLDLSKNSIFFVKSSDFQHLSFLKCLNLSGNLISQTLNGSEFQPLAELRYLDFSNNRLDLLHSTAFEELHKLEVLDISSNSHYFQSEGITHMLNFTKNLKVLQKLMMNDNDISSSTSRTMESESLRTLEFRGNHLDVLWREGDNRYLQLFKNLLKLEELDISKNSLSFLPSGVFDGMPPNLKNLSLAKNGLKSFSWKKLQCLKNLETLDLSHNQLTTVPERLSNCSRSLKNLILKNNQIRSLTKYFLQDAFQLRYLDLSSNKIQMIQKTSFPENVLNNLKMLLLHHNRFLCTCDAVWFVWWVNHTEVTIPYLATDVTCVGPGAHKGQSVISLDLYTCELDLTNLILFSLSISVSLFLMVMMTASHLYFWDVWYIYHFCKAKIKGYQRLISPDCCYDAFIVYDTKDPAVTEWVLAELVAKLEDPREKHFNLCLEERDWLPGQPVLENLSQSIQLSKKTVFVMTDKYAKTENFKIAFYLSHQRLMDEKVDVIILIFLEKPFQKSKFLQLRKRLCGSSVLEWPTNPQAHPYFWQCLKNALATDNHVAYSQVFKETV", "settings": "oral administration; cited from earlier work"}, "[6]": {"tested_on": "chronic hepatitis B virus [B형 만성 간염 바이러스]", "settings": "oral administration, human and laboratory animals; cited from earlier work"}, "[7]": {"tested_on": "LFBK cells [LFBK 세포]", "assay": "Cytotoxicity by MTS assay (Test Example 1)", "format": "cell-based, porcine", "settings": "no virus, values in Table 1 (missing)"}, "[8]": {"tested_on": "foot-and-mouth disease virus O/VIT/2013 [구제역바이러스 O/VIT/2013]", "format": "in vivo, C57BL/6 mouse", "settings": "for survival rate: 16 h before challenge with 250 LD50, day 7"}, "[9]": {"tested_on": "IFN-α [인터페론 알파(IFN-α)]", "set-up": "species or system Balb/C mouse", "settings": "mouse, in vivo"}, "[10]": {"tested_on": "IFN-γ [인터페론 감마(IFN-γ)]", "set-up": "species or system Balb/C mouse", "settings": "mouse, in vivo"}, "[11]": {"tested_on": "human immunodeficiency virus [인간면역결핍 바이러스(HIV)]", "settings": "cited from earlier work"}, "[12]": {"tested_on": "interferon-stimulated gene [인터페론-자극 유전자(interferon-stimulated gene; ISG)]", "settings": "oral administration, human and laboratory animals; cited from earlier work"}, "[13]": {"tested_on": "foot-and-mouth disease virus O/SKR/Boeun/2017 [구제역바이러스(O/SKR/Boeun/2017)]", "format": "cell-based"}, "[14]": {"tested_on": "IL-12", "set-up": "species or system Balb/C mouse", "settings": "mouse, in vivo"}, "[15]": {"tested_on": "foot-and-mouth disease virus O/SKR/Boeun/2017 [O/SKR/Boeun/2017 바이러스]", "format": "cell-based"}, "[16]": {"tested_on": "human hepatitis C virus [인간 간염 바이러스 C형(HCV)]", "settings": "cited from earlier work"}, "[17]": {"tested_on": "IL-6", "set-up": "species or system Balb/C mouse", "settings": "mouse, in vivo"}}, "note": "Structures can show the parent of a compound that is named as a salt. Where two headings read alike, the source gives them in different places.", "data": [{"smiles": "O=c1cnn([C@@H]2O[C@H](CO)[C@@H](O)[C@H]2O)c(=O)[nH]1", "note": "[6-아자우리딘(azauridine)]", "values": [{"measurement": "inhibition of proteins involved in FMDV replication", "setting": "[1]", "value": "구제역바이러스의 증식에 관여하는 단백질을 억제"}]}, {"smiles": "CCCCOc1nc(N)c2c(n1)N(Cc1cccc(CN3CCCC3)c1)CC(=O)N2", "note": "[GS-9620, 베사톨리모드(Vesatolimod; GS-9620)]", "values": [{"measurement": "IP-10 induction", "setting": "[2]", "value": "신속하게 또한 지속적으로 유도"}, {"measurement": "IFN-α protein induction", "setting": "[3]", "value": "IFN-α 단백질을 성공적으로 유도"}, {"measurement": "antiviral effect", "setting": "[4]", "value": "항바이러스 효과"}, {"measurement": "TLR7 agonist activity", "setting": "[5]", "value": "효능제(agonist)로 작용"}, {"measurement": "inhibition of hepatitis B virus", "setting": "[6]", "value": "B형 만성 간염 바이러스를 억제"}, {"measurement": "cytotoxicity", "setting": "[7]", "value": "낮은 세포독성"}, {"measurement": "survival rate", "setting": "[8]; 10 mg/kg i.p.", "value": 100, "unit": "%"}, {"measurement": "survival rate (duration of protection)", "setting": "[8]; 10 mg/kg i.p., up to day 5 after administration (challenge 1, 3, 5 days after dosing, 250 LD50)", "value": 100, "unit": "%"}, {"measurement": "survival rate", "setting": "[8]; printed dose 25 mg/kg ('halved'), i.p.", "value": 80, "unit": "%"}, {"measurement": "IFN-α induction", "setting": "[9]", "value": "유도되어 나타났다"}, {"measurement": "IFN-γ induction", "setting": "[10]", "value": "유도되어 나타났다"}, {"measurement": "antiviral effect", "setting": "[11]", "value": "항바이러스 효과"}, {"measurement": "induction of ISG expression", "setting": "[12]", "value": "발현을 유도"}, {"measurement": "FMDV replication inhibitory effect, dose dependence", "setting": "[13]; 2500~156.2 μM, 24 h pretreatment, 100 TCID50, 48 h", "value": "용량에 비례하여 구제역바이러스 증식억제 효과를 발휘"}, {"measurement": "FMDV replication inhibitory effect compared with ribavirin", "setting": "[13]; same concentration, P<0.05, 100 TCID50, 48 h", "value": "같은 농도에서 더 우수한 바이러스 증식효과"}, {"measurement": "IL-12 induction", "setting": "[14]", "value": "증가가 확인된"}, {"measurement": "selectivity index (CC50/EC50)", "setting": "[15]; LFBK cells, 24 h pretreatment, 100TCID50 virus, 24 h after inoculation", "value": "~650.5"}, {"measurement": "virus inhibitory effect", "setting": "[15]; LFBK cells, MTS assay, values in Table 1 (missing)", "value": "우수한 바이러스 억제효과"}, {"measurement": "selectivity index relative to ribavirin (fold higher)", "setting": "[15]; compared with ribavirin", "value": "~5", "unit": "fold"}, {"measurement": "antiviral effect", "setting": "[16]", "value": "항바이러스 효과"}, {"measurement": "IL-6 induction", "setting": "[17]", "value": "신속하게 또한 지속적으로 유도"}]}, {"smiles": "N=C(N)N", "note": "[구아니딘(Guanidine)-HCl]", "values": [{"measurement": "inhibition of proteins involved in FMDV replication", "setting": "[1]", "value": "구제역바이러스의 증식에 관여하는 단백질을 억제"}]}, {"smiles": "NC(=O)c1ncn([C@@H]2O[C@H](CO)[C@@H](O)[C@H]2O)n1", "note": "[리바비린, 리바비린(ribavirin)]", "values": [{"measurement": "inhibition of proteins involved in FMDV replication", "setting": "[1]", "value": "구제역바이러스의 증식에 관여하는 단백질을 억제"}]}]}
